Consider 14 compounds from patent US8193185B2, “Use of tryptanthrin compounds for immune potentiation” (Novartis Vaccines and Diagnostics, Inc., priority 2003, dated 2012).

Some results are limits rather than exact numbers.

This assay deals with human peripheral blood mononuclear cells (PBMC). Briefly: HTS assay for small molecule immune potentiators: TNF-a production by human PBMC (sandwich ELISA). Type of assay: cell-based. Particulars: human PBMC 500,000 per mL, 18 h at 37° C., secreted TNF by sandwich ELISA. An excerpt:
Candidate small molecule immune potentiators can be identified in vitro. Compounds are screened in vitro for their ability to stimulate human peripheral blood mononuclear cells to produce cytokines (e.g. TNF-a and IL-12 p40). Apoptosis inducing small molecules may be identified having this activity. These small molecule immunopotentiators have potential utility as adjuvants and immunotherapeutics.
In an assay procedure (High Throughput Screening (HTS)) for small molecule immune potentiators (SMIPs), human peripheral blood mononuclear cells (PBMC), 500,000 per mL in RPMI 1640 medium with 10% FCS, are distributed in 96 well plates (100,000 per well) already containing 5 μM of compound in DMSO. The PBMCs are incubated for 18 h at 37° C. in 5% CO2. Their ability to produce cytokines in response to the small molecule compounds is determined using a modified sandwich ELISA.
Briefly supernatants from the PBMC cultures are assayed for secreted TNF using a primary plate bound antibody for capture followed by a secondary biotinylated anti-TNF antibody forming a sandwich. The biotinylated second antibody is then detected using streptavidin-Europium and the amount of bound europium is determined by time resolved fluorescence. Compounds are screened for their TNF inducing activity that is measured in the assay as increased Europim counts over cells incubated in RPMI medium alone. “Hits” are selected based on their TNF-inducing activity relative to an optimal dose of lipopolysaccaride LPS (1 μg/ml), a strong TNF inducer. The robustness of the assay and low backgrounds have allowed for the routine selection of hits with ˜10% of LPS activity that is normally between 5-10× background (cells alone). Selected hits are then subjected to confirmation for their ability to induce cytokines from multiple donors at decreasing concentrations. Those compounds with consistent activity at or below 5 μM are considered confirmed for the purposes of this assay. The assay is readily modified for screening for compounds effective at higher or lower concentrations.
A general note: In an ELISA, binding on a coated surface is turned into a signal by an enzyme label.
Turning to `O=C1c2cc(Br)ccc2-n2c1nc1ncccc1c2=O` [Compound 1026, 9-bromopyrido[2′,3′:4,5]pyri-mido[1,2-a]indole-5,11-dione], the minimal effective concentration is ≤ 1.5 µM.
In the case of `CCOC(=O)c1ccc2c(c1)C(=O)c1nc3ccccc3c(=O)n1-2` [Compound 1039, ethyl 6,12-dioxo-6,12-dihydroindolo[2,1-b]quinazoline-8-carboxylate] it was ≥ 20 µM; in that of `O=C1c2ccccc2-n2c1nc1ncccc1c2=O` [Compound 1024, pyrido[2′,3′:4,5]pyrimido[1,2-a]indole-5,11-dione], ≤ 1.5 µM.
In the case of `O=C1c2cc(F)ccc2-n2c1nc1ccc(Cl)cc1c2=O` [Compound 1002, 2-chloro-8-fluoroindolo[2,1-b]quinazoline-6,12-dione] it was ≥ 5 µM; in that of `CCCCCCCC(=O)OCCN(C)c1ccc2c(=O)n3c(nc2c1)C(=O)c1cc(Cl)ccc1-3` [Compound 1049, 2-[(8-chloro-6,12-dioxo-6,12-dihydroindolo[2,1-b]quinazolin-3-yl)(methyl)amino]ethyl octanoate], ≥ 20 µM.
In the case of `O=C1c2cc(I)ccc2-n2c1nc1c(Cl)cc(Cl)cc1c2=O` [Compound 1041, 2,4-dichloro-8-iodoindolo[2,1-b]quinazoline-6,12-dione], the minimal effective concentration is ≥ 20 µM.
In the case of `O=C1c2cc(OC(F)(F)F)ccc2-n2c1nc1cc(SCCO)ccc1c2=O` [Compound 1023, 3-[(2-hydroxyethyl)thio]-8-[(trifluoromethyl)oxy]indol o[2,1-b]quinazoline-6,12-dione] it was ≤ 1.5 µM.
The result for `O=C1c2ccccc2-n2c1nc1c(Br)cc(Br)c(F)c1c2=O` [Compound 1015, 2,4-dibromo-1-fluoroindolo[2,1-b]quinazoline-6,12-dione] reads ≤ 1.5 µM.
`O=C1c2cc(I)ccc2-n2c1nc1ncccc1c2=O` [Compound 1028, 9-iodopyrido[2′,3′:4,5]pyrimi-do[1,2-a]indole-5,11-dione]: the minimal effective concentration was ≤ 1.5 µM.
The result for `O=C1c2cccc(F)c2-n2c1nc1ccccc1c2=O` [Compound 1005, 10-fluoroindolo[2,1-b]quinazoline-6,12-dione] reads ≤ 1.5 µM; that for `O=C1c2cc(Cl)ccc2-n2c1nc1ccccc1c2=O` [Compound 1038, 8-chloroindolo[2,1-b]quinazoline-6,12-dione], ≥ 20 µM.
As to `O=C1c2cc(Cl)ccc2-n2c1nc1ccc(I)cc1c2=O` [Compound 1016, 8-chloro-2-iodoindolo[2,1-b]quinazoline-6,12-dione], the minimal effective concentration was ≤ 1.5 µM.
For the compound `O=C1c2cc(I)ccc2-n2c1nc1c(O)cccc1c2=O` [Compound 1040, 4-hydroxy-8-iodoindolo[2,1-b]quinazoline-6,12-dione], the minimal effective concentration is ≥ 20 µM.
For `CC(C)(C)OC(=O)N1CCN(c2cc3nc4n(c(=O)c3cc2F)-c2ccc(I)cc2C4=O)CC1` [Compound 1012, 1,1-dimethylethyl 4-(2-fluoro-8-iodo-6,12-dioxo-6,12-dihydroindolo[2,1-b]quinazolin-3-yl)piperazine-1-carboxylate], the minimal effective concentration is ≥ 5 µM.

A word on the minimal effective concentration: it is the smallest amount tested that counted as effective.
